Assay results reported in patent EP4603105A1, “PHARMACEUTICAL COMPOSITION CONTAINING CYCLIC COMPOUND HAVING SELECTIVE KRAS INHIBITORY EFFECT AGAINST HRAS AND NRAS” (CHUGAI SEIYAKU KABUSHIKI KAISHA, priority 2022, dated 2024).
Where a SMILES comes first, the peptide text is derived from it. Bridges are numbered along the chain shown (N, C = ends). [ ]: non-standard residue; d: D form. The star is where a group is joined. hPhe(3-Cl-4-CF3) = N[C@@H](CCc1ccc(C(F)(F)F)c(Cl)c1)C(=O)O; NPrPhe(4-CF3) = CCCN[C@@H](Cc1ccc(C(F)(F)F)cc1)C(=O)O; NEtPhe(4-CF3) = CCN[C@@H](Cc1ccc(C(F)(F)F)cc1)C(=O)O; NMeGly(cPent) = CN[C@H](C(=O)O)C1CCCC1; Pro(4S-Me) = C[C@@H]1CN[C@H](C(=O)O)C1; NMeD = CN[C@@H](CC(=O)O)C(=O)O; NMeL = CN[C@@H](CC(C)C)C(=O)O; Ac6c = NC1(C(=O)O)CCCCC1; Morpholide = C1CN(*)CCO1; NMeA = CN[C@@H](C)C(=O)O; dNMeA = CN[C@H](C)C(=O)O; Ac5c = NC1(C(=O)O)CCCC1; Aze = O=C(O)[C@@H]1CCN1; Ac3c = NC1(C(=O)O)CC1; Sar = CNCC(=O)O

Columns and labels:
[1] = tested on: human lung cancer strain NCI-H441; assay type: cell-based
How it was run: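 Readout: […] after the ATP-based reagent. Compound: serial dilutions in dimethyl sulfoxide.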

[2] = molecular target: GDP-bound NRAS wild-type protein (Homo sapiens, UniProt P01111); test: Binding to NRAS by surface plasmon resonance (SPR), KD and KD ratio to KRAS
Sequence of GDP-bound NRAS wild-type protein (P01111 whole entry): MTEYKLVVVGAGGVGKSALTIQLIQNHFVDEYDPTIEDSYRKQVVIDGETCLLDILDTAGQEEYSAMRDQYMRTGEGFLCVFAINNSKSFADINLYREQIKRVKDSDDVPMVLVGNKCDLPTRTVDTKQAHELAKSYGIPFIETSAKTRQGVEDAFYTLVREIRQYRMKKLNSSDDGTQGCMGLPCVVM
How it was run: (§1)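 GDP-loaded biotinylated Avi-tag RAS proteins (E. coli-expressed) captured on a Biotin CAPture chip at ~100–300 RU; single-cycle kinetics at 30°C, 100 µL/min, 75 s injections of rising compound concentrations. HBS pH 7.4 running buffer with 1 mM DTT, 10 mM MgCl2, 10 µM GDP, 4% DMSO. KD from 1:1 binding fit.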

HRAS wild-type protein = HRAS wild-type protein (Homo sapiens, UniProt P01112); test: Binding to HRAS by surface plasmon resonance (SPR), KD and KD ratio to KRAS
Sequence of HRAS wild-type protein (P01112 whole entry): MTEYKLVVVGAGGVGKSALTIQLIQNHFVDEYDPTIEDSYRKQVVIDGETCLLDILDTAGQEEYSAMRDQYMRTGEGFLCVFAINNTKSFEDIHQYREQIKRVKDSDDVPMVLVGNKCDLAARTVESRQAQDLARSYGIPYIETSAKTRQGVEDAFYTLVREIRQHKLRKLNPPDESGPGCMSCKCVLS
How it was run: as §1

[3] = ratio of the KD value with respect to GDP-bound NRAS wild-type protein to the KD value with respect to KRAS
[4] = ratio of the KD value with respect to HRAS wild-type protein to the KD value with respect to KRAS
[5] = ratio of KD for GDP-bound NRAS wild-type protein to KD for KRAS
[6] = ratio of KD for HRAS wild-type protein to KD for KRAS
[7] = ratio of KD value for GDP-bound NRAS wild-type protein to KD value for KRAS (SPR)
[8] = ratio of KD value for HRAS wild-type protein to KD value for KRAS (SPR)

| Compound | IC50 [1] [nM] | NRAS /KRAS [2, 5] | HRAS /KRAS (HRAS wild-type protein; [6]) | other results |
| --- | --- | --- | --- | --- |
| CCO[C@@H]1C[C@H]2C(=O)NC3(CC(C)(C)C3)C(=O)N(C)[C@@H](C(CC)CC)C(=O)N(C)[C@H](C(=O)N(C)C)CC(=O)N(C)[C@@H](CC3CCC3)C(=O)N[C@@H]([C@@H](C)CC)C(=O)N(C)CC(=O)N(C)[C@H]3C/C=C\CCN(C3=O)[C@@H](Cc3ccc(C)cc3)C(=O)N(C)CC(=O)N[C@@H](CCc3ccc(C(F)(F)F)c(OC)c3)C(=O)N2C1 [PP2172] | 5.8 | – | – | NRAS /KRAS [2, 3]: A (a compound having 10 or more and less than 20 is denoted as A); HRAS /KRAS (HRAS wild-type protein; [4]): B (a compound having 3 or more and less than 10 is denoted as B) |
| CC[C@H](C)[C@@H]1NC(=O)[C@H](CC(C)C)N(C)C(=O)C[C@@H](C(=O)N2CCOCC2)N(C)C(=O)[C@H](C2CCCC2)N(C)C(=O)C2(CC2)NC(=O)[C@@H]2CCCN2C(=O)[C@H](CCc2ccc(C(F)(F)F)c(Cl)c2)NC(=O)CN(C)C(=O)[C@H](Cc2ccc(C(F)(F)F)cc2)N(CC)C(=O)[C@@H]2CCN2C(=O)[C@H](C)N(C)C1=O [PP0220] ([NMeL]I[NMeA][Aze][NEtPhe(4-CF3)][Sar][hPhe(3-Cl-4-CF3)]P[Ac3c][NMeGly(cPent)][NMeD]-Morpholide; lactam N-11) | 7.7 | C (A compound having a KD ratio of 0.1 or more and less than 3 is denoted as C) | C (A compound having a KD ratio of 0.1 or more and less than 3 is denoted as C) | – |
| CCO[C@@H]1C[C@H]2C(=O)NC3(CCC3)C(=O)N(C)[C@@H](C3CCCC3)C(=O)N(C)[C@H](C(=O)N(C)C)CC(=O)N(C)[C@@H](CC)C(=O)N[C@@H]([C@@H](C)CC)C(=O)N[C@@H](C)C(=O)N(C)[C@H]3C/C=C\CCN(C3=O)[C@@H](Cc3ccc(C(F)(F)F)cc3)C(=O)N(C)CC(=O)N[C@@H](CCc3cc(F)c(C(F)(F)F)c(F)c3)C(=O)N2C1 [PP1065] | 96.7 | A (a compound having 10 or more and less than 20 is denoted as A) | B (a compound having 3 or more and less than 10 is denoted as B) | – |
| CC[C@H](C)[C@@H]1NC(=O)[C@H](CC(F)F)N(C)C(=O)C[C@@H](C(=O)N(C)C)N(C)C(=O)[C@H](C2CCCC2)N(C)C(=O)C2(CC(C)(C)C2)NC(=O)[C@@H]2C[C@H](C)CN2C(=O)[C@H](CCc2cc(F)c(C(F)(F)F)c(F)c2)NC(=O)CN(C)C(=O)[C@H](Cc2ccc(C(F)(F)F)cc2)N2CC/C=C\C[C@@H](C2=O)N(C)C(=O)CN(C)C1=O [PP1658] | 3.8 | – | – | NRAS /KRAS [2, 7]: A (a compound having 10 or more and less than 20 is denoted as A); HRAS /KRAS (HRAS wild-type protein; [8]): A (a compound having 10 or more and less than 20 is denoted as A) |
| CCCN1C(=O)CN(C)C(=O)CN(C)C(=O)[C@H]([C@@H](C)CC)NC(=O)[C@H](CC(C)C)N(C)C(=O)C[C@@H](C(=O)N2CCOCC2)N(C)C(=O)[C@H](C2CCCC2)N(C)C(=O)C2(CCCC2)NC(=O)[C@@H]2CCCN2C(=O)[C@H](CCc2ccc(C(F)(F)F)c(Cl)c2)NC(=O)[C@@H](C)N(C)C(=O)[C@@H]1Cc1ccc(C(F)(F)F)cc1 [PP0148] ([NMeL]I[Sar][Sar][NPrPhe(4-CF3)][dNMeA][hPhe(3-Cl-4-CF3)]P[Ac5c][NMeGly(cPent)][NMeD]-Morpholide; lactam N-11) | 38 | B (a compound having 3 or more and less than 10 is denoted as B) | B (a compound having 3 or more and less than 10 is denoted as B) | – |
| CC[C@H](C)[C@@H]1NC(=O)[C@H](CC(C)C)N(C)C(=O)C[C@@H](C(=O)N2CCOCC2)N(CC)C(=O)[C@H](C2CCCC2)N(C)C(=O)C2(CCCC2)NC(=O)[C@@H]2CCCN2C(=O)[C@H](CCc2cc(F)c(C(F)(F)F)c(F)c2)NC(=O)CN(C)C(=O)[C@H](Cc2ccc(C(F)(F)F)cc2)N2CCCC[C@@H](C2=O)N(C)C(=O)CN(C)C1=O [PP0539] | 6.3 | – | – | NRAS /KRAS [2, 3]: B (a compound having 3 or more and less than 10 is denoted as B); HRAS /KRAS (HRAS wild-type protein; [4]): B (a compound having 3 or more and less than 10 is denoted as B) |
| CCCN(C)C(=O)[C@@H]1CC(=O)N(C)[C@@H](C2CC2)C(=O)N[C@@H]([C@@H](C)CC)C(=O)N(C)CC(=O)N(C)[C@H]2C/C=C\CCN(C2=O)[C@@H](Cc2ccc(C(F)(F)F)cc2)C(=O)N(C)CC(=O)N[C@@H](CCc2cc(F)c(C(F)(F)F)c(F)c2)C(=O)N2C[C@@H](C)C[C@H]2C(=O)NC2(CCC2)C(=O)N(C)[C@@H](C2CCCC2)C(=O)N1C [PP2081] | 11.2 | – | – | NRAS /KRAS [2, 3]: A (a compound having 10 or more and less than 20 is denoted as A); HRAS /KRAS (HRAS wild-type protein; [4]): A (a compound having 10 or more and less than 20 is denoted as A) |
| CCO[C@@H]1C[C@H]2C(=O)NC3(CCC3)C(=O)N(C)[C@@H](C3CCCC3)C(=O)N(C)[C@H](C(=O)N(C)CC)CC(=O)N(C)[C@@H](CC(F)F)C(=O)N[C@@H]([C@@H](C)CC)C(=O)N(C)CC(=O)N(C)[C@H]3C/C=C\CCN(C3=O)[C@@H](Cc3ccc(C(F)(F)F)cc3)C(=O)N(C)CC(=O)N[C@@H](CCc3cc(F)c(C(F)(F)F)c(F)c3)C(=O)N2C1 [PP1303] | 4.2 | – | – | NRAS /KRAS ([2]; ratio of KD with respect to GDP-bound NRAS wild-type protein to KD with respect to KRAS): AA (a compound having 20 or more is denoted as AA); HRAS /KRAS (HRAS wild-type protein; ratio of KD with respect to HRAS wild-type protein to KD with respect to KRAS): A (a compound having 10 or more and less than 20 is denoted as A) |
| CC[C@H](C)[C@@H]1NC(=O)[C@@H]2CCCCCc3ccc(cc3)C[C@@H](C(=O)N(C)CC(=O)N[C@@H](CCc3ccc(C(F)(F)F)c(OC)c3)C(=O)N3CC4(CC4)C[C@H]3C(=O)NC3(CC(C)(C)C3)C(=O)N(C)[C@@H](C3CCCC3)C(=O)N(C)[C@H](C(=O)N(C)C)CC(=O)N2C)N2CC/C=C\C[C@@H](C2=O)N(C)C(=O)CN(C)C1=O [PP3074] | 2.4 | A (a compound having 10 or more and less than 20 is denoted as A) | A (a compound having 10 or more and less than 20 is denoted as A) | – |
| CCCN1C(=O)CN(C)C(=O)CN(C)C(=O)[C@H]([C@@H](C)CC)NC(=O)[C@H](CC(C)C)N(C)C(=O)C[C@@H](C(=O)N2CCOCC2)N(C)C(=O)[C@H](C2CCCC2)N(C)C(=O)C2(CCCCC2)NC(=O)[C@@H]2CCCN2C(=O)[C@H](CCc2ccc(C(F)(F)F)c(Cl)c2)NC(=O)CN(C)C(=O)[C@@H]1Cc1ccc(C(F)(F)F)cc1 [PP0231] ([NMeL]I[Sar][Sar][NPrPhe(4-CF3)][Sar][hPhe(3-Cl-4-CF3)]P[Ac6c][NMeGly(cPent)][NMeD]-Morpholide; lactam N-11) | 13.1 | B (a compound having 3 or more and less than 10 is denoted as B) | C (A compound having a KD ratio of 0.1 or more and less than 3 is denoted as C) | – |
| CCCN1C(=O)CN(C)C(=O)CN(C)C(=O)[C@H]([C@@H](C)CC)NC(=O)[C@H](CC(C)C)N(C)C(=O)C[C@@H](C(=O)N2CCOCC2)N(C)C(=O)[C@H](C2CCCC2)N(C)C(=O)C2(CCCC2)NC(=O)[C@@H]2C[C@H](C)CN2C(=O)[C@H](CCc2ccc(C(F)(F)F)c(Cl)c2)NC(=O)CN(C)C(=O)[C@@H]1Cc1ccc(C(F)(F)F)cc1 [PP0447] ([NMeL]I[Sar][Sar][NPrPhe(4-CF3)][Sar][hPhe(3-Cl-4-CF3)][Pro(4S-Me)][Ac5c][NMeGly(cPent)][NMeD]-Morpholide; lactam N-11) | 3.9 | – | – | NRAS /KRAS [2, 3]: B (a compound having 3 or more and less than 10 is denoted as B); HRAS /KRAS (HRAS wild-type protein; [4]): C (A compound having a KD ratio of 0.1 or more and less than 3 is denoted as C) |
| CCO[C@@H]1C[C@H]2C(=O)NC3(CC(C)(C)C3)C(=O)N(C)[C@@H](C3CCCC3)C(=O)N(C)[C@H](C(=O)N(C)CC)CC(=O)N(C)[C@@H](CC(C)C)C(=O)N[C@@H]([C@@H](C)CC)C(=O)NCC(=O)N(C)[C@H]3C/C=C\CCN(C3=O)[C@@H](Cc3ccc(C(F)(F)F)cc3)C(=O)N(C)CC(=O)N[C@@H](CCc3cc(F)c(C(F)(F)F)c(F)c3)C(=O)N2C1 [PP1771] | 6.6 | – | – | NRAS /KRAS [2, 7]: A (a compound having 10 or more and less than 20 is denoted as A); HRAS /KRAS (HRAS wild-type protein; [8]): A (a compound having 10 or more and less than 20 is denoted as A) |
| CCC[C@H]1C(=O)N[C@@H]([C@@H](C)CC)C(=O)N(C)CC(=O)N(C)[C@H]2C/C=C\CCN(C2=O)[C@@H](Cc2ccc(C(F)(F)F)cc2)C(=O)N(C)CC(=O)N[C@@H](CCc2cc(F)c(C(F)(F)F)c(F)c2)C(=O)N2C[C@H](OCC)C[C@H]2C(=O)NC2(CC(C)(C)C2)C(=O)N(C)[C@@H](CC2CC2)C(=O)N(C)[C@H](C(=O)N(C)C)CC(=O)N1C [PP2807] | 28 | AA (a compound having 20 or more is denoted as AA) | A (a compound having 10 or more and less than 20 is denoted as A) | – |
| CCO[C@@H]1C[C@H]2C(=O)NC3(CCC3)C(=O)N(C)[C@@H](C3CCCC3)C(=O)N(C)[C@H](C(=O)N(C)C)CC(=O)N(C)[C@@H](CC)C(=O)N[C@@H]([C@@H](C)CC)C(=O)N3CCSC[C@H]3C(=O)N(C)[C@H]3C/C=C\CCN(C3=O)[C@@H](Cc3ccc(C(F)(F)F)cc3)C(=O)N(C)CC(=O)N[C@@H](CCc3cc(F)c(C(F)(F)F)c(F)c3)C(=O)N2C1 [PP1060] | 307 | A (a compound having 10 or more and less than 20 is denoted as A) | A (a compound having 10 or more and less than 20 is denoted as A) | – |
